For 60 compounds, EC50 results are on record in BindingDB's records for doi:10.7270/Q2BR8QM3 (Nmmlsc, 2008).

Structures can show the parent of a compound that is named as a salt.

This test deals with T1, Bcl-2-like protein 2 (Homo sapiens, UniProt Q92843).
T1 sequence (Q92843 whole entry): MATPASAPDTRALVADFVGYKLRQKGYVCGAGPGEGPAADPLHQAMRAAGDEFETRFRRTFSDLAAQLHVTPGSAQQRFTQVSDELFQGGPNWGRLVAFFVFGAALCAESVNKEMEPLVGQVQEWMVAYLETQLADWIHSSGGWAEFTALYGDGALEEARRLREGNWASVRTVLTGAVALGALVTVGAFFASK
Put plainly: Bcl-W/Bim binding regulators – biochemical, multiplexed, bead-based flow cytometry, fluorescence, dose response (AID 1330). In general terms: In flow cytometry, cells or beads pass a laser one at a time.

Where [1] appears, read: inactive by the depositor's call.

As usually defined, the EC50 is the concentration needed to bring the measured effect to its halfway point. High values mean lower potency in that assay, low ones higher potency in that assay. Consider `CN(C)c1ncc(C2=C(Cl)C(=O)C(N3CCCC3)=C(Cl)C2=O)s1`, for which the half-maximal effective concentration (EC50) under setting [1] was 0.05 µM.
The same measure, in the same setting: under `COc1ccc(C)cc1-n1c(=O)c2ccccc2c2ccccc2c1=O` [MLS000682999] stands 24.2 µM.
As to `CCC(=O)N(CC)C1C(=O)C(=O)c2ccccc2C1=O` (stereo not given) [N-ethyl-N-(1-hydroxy-3,4-dioxo-2-naphthalenyl)propanamide], a half-maximal response (EC50) required 0.92 µM.
Compound `O=C1C=CC(C=NNC(=O)C(=Cc2ccc([N+](=O)[O-])cc2)NC(=O)c2ccccc2)C(O)=C1O` (stereo not given) [MLS000530401] showed an EC50 of 4.76 µM.
In turn, `Cc1cc2n(c1)CCn1c(C)ccc1-2` [MLS000104384] returned an EC50 under setting [1] of 13.6 µM.
On the same count and under the same terms, the same measure for `COCCNc1[nH]c(=S)nc2cc(OC)c(OC)cc12`: 3.86 µM; for `O=C(NCCO)c1ccc2nc(-c3ccco3)c(-c3ccco3)nc2c1` [SMR000121771]: 11.2 µM; for `O=C(/C=C\c1ccc(-c2ccccc2)o1)c1ccccc1` [(Z)-1-phenyl-3-(5-phenyl-2-furanyl)-2-propen-1-one]: 10.6 µM.
Turning to `CN=c1scc(-c2cccs2)n1N=Cc1ccc(O)c(O)c1O` [SMR000242177], the EC50 was found to be 5.05 µM.
`Cc1cc(-c2nnc3n2N=C(c2ccc(-c4ccccc4)cc2)CS3)[nH]n1` [MLS000082991] showed an EC50 under setting [1] of 7.58 µM.
Under setting [1], `CCOc1cccc(CNc2ccc(O)cc2)c1OCc1ccc(Cl)cc1` [4-[[2-[(4-chlorophenyl)methoxy]-3-ethoxyphenyl]methylamino]phenol] displayed a concentration giving a half-maximal response (EC50) of 10.2 µM.
In turn, `O=C(CSc1ccc2nnc(-c3ccccn3)n2n1)Nc1nccs1` [2-[[3-(2-pyridinyl)-[1,2,4]triazolo[4,3-b]pyridazin-6-yl]thio]-N-(2-thiazolyl)acetamide] yielded an EC50 under setting [1] of 14.1 µM.
Still for that read-out and setting: the same measure for `c1coc(C2=Nc3cccc4cccc(c34)N2)c1` [2-(2-furanyl)-1H-perimidine]: 6.62 µM.
Take `CN1CCc2cccc3c2[C@H]1Cc1ccc(O)c(O)c1-3` [APOMORPHINE HYDROCHLORIDE]: the EC50 was found to be 19 µM.
The same measure, in the same setting: under `C#CCn1cc(C=C2C(=O)c3ccccc3C2=O)c2ccccc21` [SMR000196125] stands 9.02 µM.
Turning to `Cc1cccc(C(=O)/N=c2\c(C#N)cc3c(=O)n4cccc(C)c4nc3n2Cc2ccco2)c1` [N-[3-cyano-1-(furan-2-ylmethyl)-10-methyl-5-oxodipyrido[3,4-c:1',2'-f]pyrimidin-2-ylidene]-3-methylbenzamide], the half-maximal effective concentration (EC50) under setting [1] was determined as 41.3 µM.
The compound `Cc1cc(N)ccc1N1CCCC1` [3-methyl-4-(1-pyrrolidinyl)aniline;hydrochloride] showed an EC50 of 3.96 µM.
Compound `Cc1ccnc(Nc2nc(-c3c(C)nc4sccn34)cs2)c1` [[4-(6-Methyl-imidazo[2,1-b]thiazol-5-yl)-thiazol-2-yl]-(4-methyl-pyridin-2-yl)-amine] had an EC50 under setting [1] of 15.7 µM.
Take `O=c1[nH]c2ccc(N=Cc3c(O)ccc4cc(Br)ccc34)cc2[nH]1` [SMR000171789]: the response was half-maximal at 4.15 µM (EC50).
In the case of `CCOC(=O)C1CCN(C(=O)Nc2ccc3nc(-c4ccco4)c(-c4ccco4)nc3c2)CC1` [MLS000113285], the EC50 was determined as 4.93 µM.
The compound `COCCCn1c(N)c(C(=O)Nc2sc3c(c2C(=O)OC)CCCC3)c2nc3ccccc3nc21` [MLS000595323] returned an EC50 under setting [1] of 2.34 µM.
Same read-out and setting: under `Clc1nc(NCc2cccnc2)nc(N2CCOCC2)n1` [MLS000121154] stands 18.5 µM; under `COc1ccc(/C=C/C(=O)c2cc(Br)ccc(=O)c2O)cc1` [MLS000702099], 27.5 µM.
The same measure, in the same setting: the same measure for `Cc1nc2ncccn2c1-c1csc(Nc2ccccc2)n1` [4-(2-methyl-3-imidazo[1,2-a]pyrimidinyl)-N-phenyl-2-thiazolamine]: 8.71 µM.
`CCOC(=O)c1c(NC(C)=O)sc2c(O)c(Br)cc(Br)c12`: the EC50 under setting [1] was 40.3 µM.
`CN1CCc2cccc3c2[C@@H]1Cc1ccc(O)c(O)c1-3` registered an EC50 of 9.95 µM.
Still for that read-out and setting: the same measure for `COc1cc(C=NNC(=O)CN(Cc2ccco2)S(=O)(=O)c2ccccc2)ccc1O` [N-(2-furanylmethyl)-N-[2-[[(E)-(3-methoxy-4-oxo-1-cyclohexa-2,5-dienylidene)methyl]hydrazo]-2-oxoethyl]benzenesulfonamide]: 15.3 µM.
For `CC(=O)c1ccc(NC(=O)c2ccc3nc(-c4ccco4)c(-c4ccco4)nc3c2)cc1` [N-(4-acetylphenyl)-2,3-di-2-furyl-6-quinoxalinecarboxamide], the EC50 under setting [1] stood at 3.97 µM.
Under setting [1], `Cc1ccc(C=NN(C)C2=NS(=O)(=O)c3ccccc32)o1` [N-methyl-N-[(5-methyl-2-furanyl)methylideneamino]-1,1-dioxo-1,2-benzothiazol-3-amine] registered an EC50 of 16.6 µM.
`OCCN1CCN(CCCc2c3c(cc4c2CCC4)CCC3)CC1` [MLS000698424]: it took 16.6 µM to reach a half-maximal effect (EC50).
Take `COc1ccc(C2=Nn3c(nnc3-c3ccco3)SC2)cc1OC` [6-(3,4-Dimethoxy-phenyl)-3-furan-2-yl-7H-[1,2,4]triazolo[3,4-b][1,3,4]thiadiazine]: under setting [1], the midpoint of the response, the EC50, lay at 4.24 µM.
For `COc1cccc(CN=Nc2nn3cnnc3c3ccccc23)c1` [N-[1-(3-Methoxy-phenyl)-meth-(E)-ylidene]-N'-[1,2,4]triazolo[3,4-a]phthalazin-6-yl-hydrazine], a half-maximal response (EC50) required 2.43 µM.
On the same count and under the same terms, the same measure for `Nc1c(C(=O)NCC2CCCO2)sc2nc3c(c(-c4ccco4)c12)CC/C3=C\c1ccco1` (stereo not given) [SMR000259502]: 2.36 µM.
`Cc1ccc(-c2ccc(/C=C3\SC(N4CCOCC4)=NC3=O)o2)cc1` [(5Z)-5-[[5-(4-methylphenyl)-2-furanyl]methylidene]-2-(4-morpholinyl)-4-thiazolone] displayed an EC50 under setting [1] of 89 µM.
Still for that read-out and setting: under `CN1CCN(C2=C(Cl)C(=O)C(c3cnc(N4CCCCC4)s3)=C(Cl)C2=O)CC1` stands 0.04 µM; under `CCOCCCn1c(N)c(C(=O)Nc2sc3c(c2C(=O)OC)CCCC3)c2nc3ccccc3nc21`, 1.8 µM; under `CCN(CC)c1ccc(Nc2nc(N3CCOCC3)c3ccccc3n2)cc1` [4-N,4-N-diethyl-1-N-(4-morpholin-4-ylquinazolin-2-yl)benzene-1,4-diamine], 4.71 µM.
Still for that read-out and setting: under `CSc1nnc2c3cc(C)ccc3n(Cc3ccccc3)c2n1` [SMR000046397] stands 29.6 µM.
The compound `O=[N+]([O-])c1ccc(N=NCc2ccc(O)c(O)c2O)c(S(=O)(=O)N2CCOCC2)c1` [MLS000336720] returned an EC50 of 3.52 µM.
In the case of `CN(N=Cc1cccnc1)C1=NS(=O)(=O)c2ccccc21` [SMR000207578], a half-maximal effect under setting [1] (EC50) was put at 17.3 µM.
Still for that read-out and setting: under `O=C(/C=C/c1ccccc1Cl)c1ccccc(=O)c1O` [3-[(E)-3-(2-chlorophenyl)prop-2-enoyl]-2-oxidanyl-cyclohepta-2,4,6-trien-1-one] stands 11.8 µM.
`CNCc1ccccc1Sc1ccc(O)c(O)c1` [SMR000230497] gave an EC50 of 42.4 µM.
Take `CC(C)(C)NC(=O)COc1ccc(CNc2ccc3[nH]c(O)nc3c2)cc1` [N-tert-butyl-2-[4-[[(2-oxidanylidene-1,3-dihydrobenzimidazol-5-yl)amino]methyl]phenoxy]ethanamide]: a half-maximal response under setting [1] (EC50) required 6.29 µM.
On the same count and under the same terms, the same measure for `Nc1ccc(C2=Nc3cccc4cccc(c34)N2)cc1` [SMR000175908]: 15.7 µM; for `COc1cc2nc(=S)[nH]c(NCC3CCCO3)c2cc1OC` (stereo not given) [6,7-dimethoxy-4-(2-oxolanylmethylamino)-1H-quinazoline-2-thione]: 4.62 µM; for `O=C(Nc1ccc2nc(-c3ccco3)c(-c3ccco3)nc2c1)N1CCN(c2ccccn2)CC1`: 14.9 µM.
The compound `CCN(CC)S(=O)(=O)c1cccc(C(=O)NN=Cc2ccc(O)c(O)c2O)c1` had an EC50 of 5.13 µM.
Under setting [1], `Cc1ccc(C(=O)/C=C/c2ccc(-c3ccc(C)cc3)o2)cc1` [1-p-Tolyl-3-(5-p-tolyl-furan-2-yl)-propenone] returned an EC50 of 1.02 µM.
Compound `COc1cc2nc(=S)n(CCCN3CCOCC3)c(N)c2cc1OC` had a 50% effective concentration (EC50) under setting [1] of 9.25 µM.
Consider `Cc1nc2ncccn2c1-c1csc(Nc2ccc(O)cc2)n1`, for which the 50% effective concentration (EC50) stood at 0.33 µM.
`O=C(CSc1ccc2nnc(-c3ccncc3)n2n1)Nc1nccs1` [SMR000320332]: under setting [1], the EC50 is 11.1 µM.
On the same count and under the same terms, under `COc1cc(OC)c([N+](=O)[O-])cc1[CH+][N-]NC(=O)c1ccncc1` [SMR000306621] stands 25.7 µM; under `COc1cc(C2Nc3cccc4cccc(c34)N2)ccc1OC(C)=O` [Acetic acid 4-(2,3-dihydro-1H-perimidin-2-yl)-2-methoxy-phenyl ester], 11.5 µM.
`Cc1cc(OCc2cn3cccnc3n2)ccc1Cl` [2-[(4-chloranyl-3-methyl-phenoxy)methyl]imidazo[1,2-a]pyrimidine]: under setting [1], the EC50 stood at 19.8 µM.
In turn, `COc1cccc2c(SCC(=O)NN=Cc3ccc(O)cc3O)cc(C)nc12` [N'-[(E)-(2-hydroxy-4-oxo-1-cyclohexa-2,5-dienylidene)methyl]-2-[(8-methoxy-2-methyl-4-quinolinyl)thio]acetohydrazide] came in with a concentration giving a half-maximal response (EC50) of 55.2 µM.
On the same count and under the same terms, the same measure for `COc1ccc(CC(=O)Nc2ccc(-c3nc4cc(C)ccc4o3)c(O)c2)cc1OC` [2-(3,4-dimethoxyphenyl)-N-[(4Z)-3-keto-4-(5-methyl-3H-1,3-benzoxazol-2-ylidene)cyclohexa-1,5-dien-1-yl]acetamide]: 10.1 µM.
Compound `Cc1cc(C)nc(SCc2cc(=O)c(OC(=O)c3ccc(Cl)c([N+](=O)[O-])c3)co2)n1` [4-chloro-3-nitrobenzoic acid [6-[[(4,6-dimethyl-2-pyrimidinyl)thio]methyl]-4-oxo-3-pyranyl] ester] registered an EC50 under setting [1] of 6.18 µM.
In turn, `COCCN=c1scc(-c2ccco2)n1N=Cc1ccc(O)c(O)c1O` returned an EC50 of 1.81 µM.
As for `COCCNC(=S)Nc1cc(OC)c(OC)cc1C#N` [1-(2-cyano-4,5-dimethoxy-phenyl)-3-(2-methoxyethyl)thiourea], it took 14.5 µM to reach a half-maximal effect under setting [1] (EC50).
Same read-out and setting: under `COc1cc(CNc2ccc3[nH]c(=O)[nH]c3c2)cc(Br)c1OCC(=O)NC(C)(C)C` [2-[2-bromo-6-methoxy-4-[[(2-oxo-1,3-dihydrobenzimidazol-5-yl)amino]methyl]phenoxy]-N-tert-butylacetamide] stands 1.47 µM.
